The text below walks through data of patent US7795437B2, “Ether derivatives” (Hoffmann-La Roche Inc., priority 2006, dated 2010).

For experiment [1], the target named is T1, human D3 dopamine receptor (Homo sapiens, UniProt P35462).
T1 construct: expressed in transfected cells; host or cells: HEK-293 EBNA cells (transient transfection; membrane preparation)
The experiment can be described thus: Radioligand binding to cloned human D3 receptor ([3H]-spiperone). Conditions: first value of D3/5HT2A/D2; membranes of transfected HEK-293 EBNA cells, 0.5 nM [3H]-spiperone, 1 h at RT. As for the experimental part: (§1) The ability of compounds of the present invention to bind to the 5-HT2A, D3 and D2 receptors was determined using radioligand binding to cloned receptors selectively expressed in HEK-293 EBNA cells.
(§2) Membrane Preparation for Human D2, Human D3 and Human 5-HT2A Receptors
(§3) HEK-293 EBNA cells were transiently transfected with expression plasmids encoding for the human D2 or D3 dopamine- or for the human 5-HT2A serotonin receptor, respectively. The cells were harvested 48 hours post-transfection, washed three times with cold phosphate buffered saline (PBS) and stored at −80° C. prior to use. The pellet was suspended in cold 50 mM Tris-HCl buffer containing 10 mM EDTA (pH 7.4) and homogenized with a Polytron (Kinematica AG, Basel, Switzerland) for 20-30 seconds at 12.000 rpm. After centrifugation at 48.000×g for 30 minutes at 4° C., the pellet was resuspended in cold 10 mM Tris-HCl buffer containing 0.1 mM EDTA (pH 7.4), homogenized, and centrifuged as above. This pellet was further resuspended in a smaller volume of ice cold 10 mM Tris-HCl buffer containing 0.1 mM EDTA (pH 7.4) and homogenized with a Polytron for 20-30 sec at 12.000 rpm. The protein content of this homogenate was determined with the Bio-Rad (Bradford) Protein Assay (Biorad Laboratories GmbH, München, Germany) according to the instructions of the manufacturer using gamma globulin as the standard. This homogenate was stored at −80° C. in aliquots and thawed immediately prior to use.
(§4) Radioligand Binding Assay Conditions
(§5) Aliquots of membrane preparations were thawed at room temperature, resuspended in assay buffer (D2, D3: 50 mM Tris-HCl, 120 mM NaCl, 5 mM MgCl2, 1 mM EDTA, 5 mM KCl, 1.5 mM CaCl2, pH=7.4; 5-HT2A: 50 mM Tris-HCl, 10 mM MgCl2, 1 mM EGTA, pH=7.4), homogenized with a Polytron for 20-30 seconds at 12.000 rpm and adjusted to a final concentration of approximately 7.5 μg protein/well (D2, D3) and 15 μg protein/well (5-HT2A), respectively.
(§6) The binding affinity (Ki) of the compounds was determined using radioligand binding. Membranes were incubated in a total volume of 200 μl with a fixed concentration of radioligand (final concentration approximately 0.7 nM [^3H]-spiperone for D2, 0.5 nM [^3H]-spiperone for D3, and 1.1 nM [^3H]-ketanserin for 5-HT2A) and ten concentrations of test compound ranging between 10 μM-0.1 nM for 1 h at RT. At the end of the incubation, the reaction mixtures were filtered on to unifilter 96-well white microplates with bonded GF/C filters (Packard BioScience, Zudrich, Switzerland; preincubated for 1 h in 0.1% polyethylenimine (PEI) in assay buffer) with a Filtermate 196 harvester (Packard BioScience) and washed 3 times with cold assay buffer. The nonspecific binding was determined with equally composed reaction mixtures in the presence of 10 μM unlabelled spiperone. Per well 45 μl of Microscint 40 (Perkin Elmer, Schwerzenbach, Switzerland) was added, plates for sealed, shaken for 20 min and counted for 3 minutes on a Topcount Microplate Scintillation Counter (Can berra Packard SA, Zu-rich, Switzerland) with quenching correction.
(§7) The CPM value for each duplicate of a concentration of competing compound was averaged (y1), then the % specific binding was calculated according to the equation (((y1−non-specific)/(total binding-non-specific))×100). Graphs were plotted with the % specific binding using XLfit, a curve fitting program that iteratively plots the data using Levenburg Marquardt algorithm. The single site competition analysis equation used was y=A+((B−A)/(1+((x/C)^D))), where y is the % specific binding, A is the minimum y, B is the maximum y, C is the IC50, x is the log10 of the concentration of the competing compound and D is the slope of the curve (the Hill Coefficient). From these curves the IC50 (inhibition concentration at which 50% specific binding of the radioligand was displaced) and Hill coefficient were determined. […]

The target in experiment [2] is T2, human D2 dopamine receptor (Homo sapiens, UniProt P14416).
T2 construct: expressed in transfected cells; host or cells: HEK-293 EBNA cells (transient transfection; membrane preparation)
T2 sequence (P14416 whole entry): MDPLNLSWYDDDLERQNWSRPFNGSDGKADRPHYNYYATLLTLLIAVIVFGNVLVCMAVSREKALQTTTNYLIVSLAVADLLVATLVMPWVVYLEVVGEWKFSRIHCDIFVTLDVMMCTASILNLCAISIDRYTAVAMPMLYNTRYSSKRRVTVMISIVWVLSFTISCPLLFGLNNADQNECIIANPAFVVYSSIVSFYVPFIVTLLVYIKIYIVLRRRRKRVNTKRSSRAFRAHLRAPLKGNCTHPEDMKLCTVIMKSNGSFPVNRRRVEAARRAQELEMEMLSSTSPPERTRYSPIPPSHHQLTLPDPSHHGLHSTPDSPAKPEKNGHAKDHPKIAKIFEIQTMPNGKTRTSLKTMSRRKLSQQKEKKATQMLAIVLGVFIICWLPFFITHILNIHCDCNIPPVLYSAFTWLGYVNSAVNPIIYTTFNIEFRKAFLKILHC
Briefly: Radioligand binding to cloned human D2 receptor ([3H]-spiperone). The settings on record: third value of D3/5HT2A/D2; membranes of transfected HEK-293 EBNA cells, 0.7 nM [3H]-spiperone, 1 h at RT. As for the experimental part:
as §1, §2, §3, §4, §5, §6, §7

For experiment [3], the target named is T3, human 5-HT2A serotonin receptor (Homo sapiens, UniProt P28223).
T3 construct: expressed in transfected cells; host or cells: HEK-293 EBNA cells (transient transfection; membrane preparation)
T3 sequence (P28223 whole entry): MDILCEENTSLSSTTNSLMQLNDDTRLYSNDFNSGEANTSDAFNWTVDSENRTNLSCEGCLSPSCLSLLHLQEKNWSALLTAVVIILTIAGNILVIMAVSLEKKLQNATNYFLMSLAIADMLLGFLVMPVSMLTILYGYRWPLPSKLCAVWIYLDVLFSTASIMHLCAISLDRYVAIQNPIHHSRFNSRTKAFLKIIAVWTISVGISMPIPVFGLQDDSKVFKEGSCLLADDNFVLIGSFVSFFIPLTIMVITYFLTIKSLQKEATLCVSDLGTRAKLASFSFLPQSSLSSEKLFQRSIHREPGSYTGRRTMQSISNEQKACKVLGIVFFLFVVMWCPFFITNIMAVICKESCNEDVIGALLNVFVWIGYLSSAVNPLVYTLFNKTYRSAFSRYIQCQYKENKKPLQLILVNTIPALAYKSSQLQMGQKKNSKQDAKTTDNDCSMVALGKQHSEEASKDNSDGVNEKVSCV
The experiment can be described thus: Radioligand binding to cloned human 5-HT2A receptor ([3H]-ketanserin). Conditions: second value of D3/5HT2A/D2; membranes of transfected HEK-293 EBNA cells, 1.1 nM [3H]-ketanserin, 1 h at RT. As for the experimental part:
as §1, §2, §3, §4, §5, §6, §7

In general, Ki refers to the equilibrium dissociation constant of an inhibitor or competing ligand from its target.

T1 sequence (P35462 whole entry): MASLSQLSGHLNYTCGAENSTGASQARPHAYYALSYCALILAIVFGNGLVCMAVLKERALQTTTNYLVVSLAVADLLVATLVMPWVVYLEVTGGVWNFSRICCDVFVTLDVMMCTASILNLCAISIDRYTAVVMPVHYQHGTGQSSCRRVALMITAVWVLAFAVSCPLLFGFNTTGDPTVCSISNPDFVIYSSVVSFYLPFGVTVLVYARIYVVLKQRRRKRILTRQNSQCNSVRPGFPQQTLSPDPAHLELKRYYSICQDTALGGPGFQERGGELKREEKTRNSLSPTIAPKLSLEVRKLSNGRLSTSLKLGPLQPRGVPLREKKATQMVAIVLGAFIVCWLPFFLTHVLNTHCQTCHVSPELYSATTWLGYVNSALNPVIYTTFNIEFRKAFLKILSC

Consider `COCCC(=O)N[C@H]1CC[C@H](CCN2CCC(Oc3ccc(F)cc3)CC2)CC1` [Example 3, N-(trans-4-{2-[4-(4-Fluoro-phenoxy)-piperidin-1-yl]-ethyl}-cyclohexyl)-3-methoxy-propionamide], for which the inhibitory constant (Ki) was 48 nM in experiment [1], 1470 nM in experiment [2] and 22 nM in experiment [3].

As for `CC(=O)N[C@H]1CC[C@H](CCN2CCC(Oc3ccc(F)cc3)CC2)CC1` [Example 8, Trans N-(4-{2-[4-(4-Fluoro-phenoxy)-piperidin-1-yl]-ethyl}-cyclohexyl)-acetamide], the Ki in experiment [1] was determined as 50 nM; in experiment [2] it was 843 nM; in experiment [3], 31 nM.

For the compound `O=C(Nc1ccc(Cl)cc1)N[C@H]1CC[C@H](CCN2CCC(Oc3ccc(F)cc3)CC2)CC1` [Example 9, Trans-1-(4-Chloro-phenyl)-3-(4-{2-[4-(4-fluoro-phenoxy)-piperidin-1-yl]-ethyl}-cyclohexyl)-urea], the inhibitory constant (Ki) in experiment [1] amounted to 14 nM; in experiment [2] it was 574 nM; in experiment [3] it was 13 nM.

For the compound `Cc1ccc(NC(=O)N[C@H]2CC[C@H](CCN3CCC(Oc4ccc(F)cc4)CC3)CC2)cc1` [Example 10, Trans-1-(4-{2-[4-(4-Fluoro-phenoxy)-piperidin-1-yl]-ethyl}-cyclohexyl)-3-p-tolyl-urea], the Ki in experiment [1] is 16 nM; in experiment [2] it was 592 nM; in experiment [3], 22 nM.

In the case of `O=C(N[C@H]1CC[C@H](CCN2CCC(Oc3ccc(F)cc3Cl)CC2)CC1)c1ccnc2ccccc12` [Example 11, Quinoline-4-carboxylic acid trans(4-{2[4-(2-chloro-4-fluoro-phenoxy)-piperidin-1-yl]-ethyl}-cyclohexyl)-amide], the Ki stood at 17 nM in experiment [1], 321 nM in experiment [2] and 2 nM in experiment [3].

As to `COCCC(=O)N[C@H]1CC[C@H](CCN2CCC(Oc3ccc(F)cc3Cl)CC2)CC1` [Example 13, N-trans (4-{2-[4-(2-Chloro-4-fluoro-phenoxy)-piperidin-1-yl]-ethyl}-cyclohexyl)-3-methoxy-propionamide], the inhibition constant (Ki) in experiment [1] is 14 nM; in experiment [2], 790 nM; in experiment [3], 3 nM.

Take `O=C(N[C@H]1CC[C@H](CCN2CCC(Oc3ccc(F)cc3Cl)CC2)CC1)C1CCOCC1` [Example 15, Tetrahydro-pyran-4-carboxylic acid trans (4-{2-[4-(2-chloro-4-fluoro-phenoxy)-piperidin-1-yl]-ethyl}-cyclohexyl)-amide]: the inhibition constant Ki in experiment [1] is 17 nM; in experiment [2], 556 nM; in experiment [3], 2 nM.

For `Cc1nc(-c2cccc(C(=O)N[C@H]3CC[C@H](CCN4CCC(Oc5ccc(F)cc5Cl)CC4)CC3)c2)no1` [Example 16, N-trans (4-{2-[4-(2-Chloro-4-fluoro-phenoxy)-piperidin-1-yl]-ethyl}-cyclohexyl)-3-(5-methyl-[1,2,4]oxadiazol-3-yl)-benzamide], the Ki in experiment [1] was determined as 11 nM; in experiment [2] it was 553 nM; in experiment [3], 5 nM.

`CCC(=O)N[C@H]1CC[C@H](CCN2CCC(Oc3ccc(F)cc3Cl)CC2)CC1` [Example 18, N-trans (4-{2-[4-(2-Chloro-4-fluoro-phenoxy)-piperidin-1-yl]-ethyl}-cyclohexyl)-propionamide]: the figures for the Ki in experiment [1], in experiment [2] and in experiment [3] were 5 nM, 604 nM and 2 nM, respectively.

`CC(=O)N[C@H]1CC[C@H](CCN2CCC(Oc3ccc(F)cc3Cl)CC2)CC1` [Example 19, N-trans(4-{2-[4-(2-Chloro-4-fluoro-phenoxy)-piperidin-1-yl]-ethyl}-cyclohexyl)-acetamide]: the values for the inhibition constant Ki in experiment [1], in experiment [2] and in experiment [3] were 12 nM, 683 nM and 3 nM, respectively.

For the compound `Cc1ccc(NC(=O)N[C@H]2CC[C@H](CCN3CCC(Oc4ccc(F)cc4Cl)CC3)CC2)cc1` [Example 21, 1-trans(4-{2-[4-(2-Chloro-4-fluoro-phenoxy)-piperidin-1-yl]-ethyl}-cyclohexyl)-3-p-tolyl-urea], the Ki worked out at 3 nM in experiment [1], 697 nM in experiment [2] and 2 nM in experiment [3].

As to `O=C(N[C@H]1CC[C@H](CCN2CCC(Oc3ccc(F)cc3F)CC2)CC1)c1ccnc2ccccc12` [Example 24, Quinoline-4-carboxylic acid trans(4-{2-[4-(2,4-difluoro-phenoxy)-piperidin-1-yl]-ethyl}-cyclohexyl)-amide], the Ki in experiment [1] turned out to be 8 nM; in experiment [2], 453 nM; in experiment [3], 3 nM.

With `O=C(N[C@H]1CC[C@H](CCN2CCC(Oc3cc(F)c(F)cc3F)CC2)CC1)C1CCOCC1` [Example 51, Tetrahydro-pyran-4-carboxylic acid trans(4-{2-[4-(2,4,5-trifluoro-phenoxy)-piperidin-1-yl]-ethyl}-cyclohexyl)-amide], the inhibition constant Ki is 29 nM in experiment [1], 638 nM in experiment [2] and 36 nM in experiment [3].

For `CC(=O)N[C@H]1CC[C@H](CCN2CCC(Oc3ccc(Cl)cc3C#N)CC2)CC1` [Example 62, N-trans-(4-{2-[4-(4-Chloro-2-cyano-Phenoxy)-piperidin-1-yl]-ethyl}-cyclohexyl)-acetamide], the Ki in experiment [1] came out at 100 nM; in experiment [2], 3320 nM; in experiment [3] it was 43 nM.

In the case of `O=C(N[C@H]1CC[C@H](CCN2CCC(Oc3cccc(Cl)c3Cl)CC2)CC1)c1ccnc2ccccc12` [Example 72, Quinoline-4-carboxylic acid trans(4-{2-[4-(2,3-dichloro-phenoxy)-piperidin-1-yl]-ethyl}-cyclohexyl)-amide], the results for the Ki in experiment [1], in experiment [2] and in experiment [3] were 5 nM, 319 nM and 9 nM, respectively.

Take `O=C(N[C@H]1CC[C@H](CCN2CCC(Oc3ccncc3)CC2)CC1)c1ccnc2ccccc12` [Example 74, Quinoline-4-carboxylic acid (trans-4-{2-[4-(Pyridin-4-yloxy)-piperidin-1-yl]-ethyl}-cyclohexyl)-amide]: the Ki is 208 nM in experiment [1], 3000 nM in experiment [2] and 60 nM in experiment [3].
